# Source: patent US20200400567A1, “FUSION POLYPEPTIDE” (PEKING UNIVERSITY, priority 2017, published 2020)
# Several values for one entry are separate records, joined by “and”; a condition that tells them apart may be missing. Equal values may be shown once. Entries after “also recorded” stand apart in the source; their conditions may differ. Read-outs that look alike come from different tables or passages of the source.
# What was measured:
# [1] = system: human acetylcholine receptor M3R subtype; test: GRAB-ACh sensor fluorescence response to ACh, drug perfusion in HEK293T cells; format: cell-based
# Experimental: After DNA encoding specific GRAB sensor was introduced into cells by transfection, fluorescence imaging combined with perfusion experiment was. The imaging capture of HEK293T cells was performed using an Olympus IX81 inverted microscope, 40×NA: 1.35 oil lens, 475/28 excitation light filter, and 515LP emission light filter. The optical signal was collected by a Zyla sCMOS DG-152V-Cle FI camera (Andor), and Lambda DG-4 from Sutter Instuments company was used as a fluorescent light source. The exposure time was set to less than 50 ms and the acquisition frequency was 5 seconds. The entire imaging system was overall controlled by micromanager software.
# The detection of the response of the GRAB sensor to the ligand (ΔF/F0) was performed using a drug perfusion method. The cells were placed in a standard physiological solution, and the formula thereof is: […]
# The pH of the physiological solution was adjusted to about 7.4, and the small molecule drug was diluted with a part of the physiological solution to formulate solutions of respective concentrations of the small molecule ligand. […] Unless explicitly specified, the concentration of isoproterenol (ISO) for perfusion was 2 μM, and the concentration of acetylcholine for perfusion was 100 μM.
# The perfusion system was equipped on a microscope, including a solution-introduced system made of syringe for injection, a multi-way valve, an imaging workbench and a suction pump. During the perfusion process, the imaging workbench was placed above the objective lens of the inverted microscope, and then the slide on which cell plated were placed in the workbench. Perfusion of different drugs were performed by controlling the switches of different pipes. In order to control the level of the solution in the workbench, the perfusion speed was set to one drop or so per second. After each drug treatment, the cells were washed with a physiological solution for more than five minutes to ensure that there were no residual drugs that will affect subsequent experiments. After the end of each experiment, the perfusion pipe and the workbench were cleaned with 75% ethanol three times to ensure that the residual drugs and impurities were fully washed away.
# Fluorescence imaging data was processed using ImageJ software. For the performance of GRAB sensors in HEK293T cells and neurons, the fluorescence of entire cell body was selected as the data processing region. For living Drosophila imaging, fluorescence images on the same Z axis were analyzed by ImageJ software. The change in the fluorescence signal was indicated by its relative difference. The signal of background area without the expression of the sensor was first subtracted from the fluorescence signal, so as to obtain the real expression of the intensity of the fluorescent protein. Then, by calculating the fluorescence value F after adding the drug and the average fluorescence value F0 before adding, the relative fluorescence change ΔF/F=(F−F0)/F0 was obtained as the fluorescence response of the sensor to a specific drug. The change of ΔF/F0 with time was further plotted by Origin 8.6 software.
# Based on GRAB-ACh 1.0, this peptide linker was optimized. First, based on a flexible amino acid (glycine, alanine), the peptide segment was screened for optimal length. The specific strategy was to change the length of the peptide linkers at the N-terminus and C-terminus from 0 to 5 amino acids, respectively, and to randomly combine the N-terminus with C-terminus to obtain all possible permutations. Fusion protein expression vectors containing various arrangements were expressed in HEK293T cells and subjected to perfusion experiments.
# human HTR2C receptor = format: cell-based; conditions: for agonist-induced change of GRAB-5-HT2.1 fluorescence signal: GRAB-5-HT2.1 in HEK293T cells; for antagonism of serotonin-induced increase of GRAB-5-HT2.1 fluorescence signal: antagonist added after serotonin
# human DRD2 receptor = test: GRAB-GDA3.0 fluorescence response in HEK293T cells, drug perfusion; format: cell-based; conditions: HEK293T cells
# From the text: There are 5 subtypes of human dopamine receptors in the body, which are named DRD1-DRD5. For constructing a fluorescent sensor, the receptors were screened preliminarily by inserting a fluorescent protein at any position in the third intracellular loop of the receptor. […] Specifically, for the third intracellular loop of the human DRD2 receptor, the insertion sites were set every 15 amino acids. Human DRD2 receptors inserted with circular permutated fluorescent proteins at different positions were expressed in HEK293T cells, and drug perfusion experiments were conducted with dopamine. […] After the positions sensitive to conformational change were determined, the surrounding amino acid sites thereof were further screened. The sites surrounding the amino acid position 252 at N-terminus and the sites surrounding the amino acid position 357 at the C-terminus were combined and different sensors were constructed. The sensors were expressed in HEK293T cells and subjected to drug perfusion experiments with dopamine. […] The peptide linkers were GG at the N-terminus and GGAAA at the C-terminus.
# human ADRA2A receptor = format: cell-based
# Experimental: The perfusion system was set on a microscope, and including a solution-introduced system, an imaging cell, and a suction pump. During the perfusion process, the imaging cell was placed above the objective lens of the inverted microscope, and the slide with cultured cells was placed in the cell. The perfusion experiments of different drugs were performed by controlling the switches of the different pipes of the solution-introduced system. The perfusion speed was set to one drop or so per second. In order to ensure the stability of the focal plane, the liquid level was kept constant at all times, and the flow rate of each solution was adjusted accordingly. The aspiration speed was adjusted to maintain the liquid level in the cell over the slide.
# The region of interest (ROI) and background area were selected manually prior to the perfusion experiment. The exposure time was set to less than 50 ms and the acquisition frequency was 5 seconds. The solution used for the perfusion was a physiological solution 4k (pH 7.3-7.4), which was used to formulate the drug to the desired concentration. The running time of the program was set to no more than 5 min. After using 4k to balance and stabilize the cells for about 60-90 s, the cells were perfused with drug for 60 s, and then washed with 4k. The excitation light for green fluorescent protein was 488 nm, and for red fluorescent protein was 568 nm. The laser intensity was adjusted according to the working state of the laser and the expression level of the cells.
# After the end of the program, the time-fluorescence intensity data sheet was exported. The background was subtracted from the ROI to get the corresponding fluorescence value Ft, and the average value of the fluorescence value before adding the drug was used as the starting fluorescence F0 to calculate
# The detection of the response of the GRAB sensor to the ligand (ΔF/F0) was performed by drug perfusion. The cells were maintained in a standard physiological solution, and the formula thereof is: […]
# Fluorescence imaging data was processed using ImageJ software. For the fluorescence performance of GRAB sensors in HEK293T cells and neurons, the entire cell body was selected as the data processing region. The change in the fluorescence signal was usually indicated by its relative intensity change. The background area without the expression of the sensor was first subtracted from the fluorescence signal, so as to obtain the true expression intensity of the fluorescent protein.
# [2] = system: human acetylcholine receptor M3R subtype; test: GRAB-ACh 2.0 kinetics, rapid local perfusion with high-speed line scanning; format: cell-based
# Experimental: For the detection of GRAB sensor kinetics, a local drug delivery system was used for the experiment. The experiment was performed using an Olympus upright microscope BX51, wherein a 40×NA: 0.80 water lens was used for imaging, and a 710M camera (DVC) was used for image acquisition. The drug delivery system was controlled by ROE-200 (from Sutter instruments company), and the position of the drug delivery needle was controlled by the MPS-1 operating lever. For the dynamic characterization experiment of the sensor, the imaging was processed using a frequency of 50 HZ (with a resolution of 768×484 pixels) and a surface element partition of 2×2.
# The Journal of pharmacology and experimental therapeutics 330, 660-668 (2009)) reduced the fluorescence signal in GRAB-ACh 2.0 expressing cells perfused with 100 μM ACh, with a smaller time constant of 762±75 ms (FIGS. 14b-c, right panel).
# Target sequence in this assay (as listed by the source): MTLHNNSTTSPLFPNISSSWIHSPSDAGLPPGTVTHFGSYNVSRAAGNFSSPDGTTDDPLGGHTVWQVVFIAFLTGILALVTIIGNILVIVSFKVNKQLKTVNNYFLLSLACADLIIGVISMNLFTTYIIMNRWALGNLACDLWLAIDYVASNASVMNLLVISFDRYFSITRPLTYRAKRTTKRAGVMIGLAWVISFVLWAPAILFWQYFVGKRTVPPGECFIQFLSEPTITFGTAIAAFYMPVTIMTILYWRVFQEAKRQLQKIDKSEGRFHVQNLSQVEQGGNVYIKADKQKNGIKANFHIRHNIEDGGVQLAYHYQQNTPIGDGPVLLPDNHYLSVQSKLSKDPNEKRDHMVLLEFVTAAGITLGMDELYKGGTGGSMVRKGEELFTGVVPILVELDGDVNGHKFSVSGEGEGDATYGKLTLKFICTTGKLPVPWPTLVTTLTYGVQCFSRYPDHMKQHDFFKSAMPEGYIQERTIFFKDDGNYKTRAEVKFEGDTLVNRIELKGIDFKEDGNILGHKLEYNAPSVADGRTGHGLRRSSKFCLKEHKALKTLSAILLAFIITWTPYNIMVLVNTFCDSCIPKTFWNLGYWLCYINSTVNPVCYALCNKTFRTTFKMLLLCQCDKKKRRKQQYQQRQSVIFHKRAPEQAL
# [3] = system: GRAB-GDA3.0 signal in mushroom body (MB); test: Odor-stimulated GRAB-GDA3.0 signal in mushroom body, in vivo two-photon imaging; design: species or system Drosophila; conditions: 10 μM antagonist in imaging solution, n=6
# Experimental: Drosophila were kept in a 25-degree incubator with a standard medium. […] The adult Drosophila to be tested were transferred to a new culture tube within 0-2 days after emergence, and left at room temperature for 8-12 days. Before the imaging, the Drosophila were first fixed in a small dish, and then the square skull part near the eye was surgically removed to expose part of the brain. The adipose tissue and air sacs near the antennal lobes to be imaged were surgically removed to prevent interference with the fluorescent signal. In order to further reduce the degradation of image quality caused by the movement of Drosophila during the imaging, surgical forceps were used to cut the muscles underneath its halter. Throughout the dissection and imaging procedures, the brain of Drosophila was kept in a pre-chilled physiological solution, and the formula thereof is as follows: […]
# Drosophila imaging was performed using an Olympus two-photon microscope, including Olympus BX61 WI microscope, 25×NA: 1.05 water lens, and Ti:Sapphire laser mode-locked laser for two-photon excitation. For GRAB sensor imaging experiments, the wavelength of the […] was set to 950 nm in order to successfully excite the fluorescent protein to produce fluorescence. The odor molecule isoamyl acetate (IA) used for stimulating Drosophila was purchased from Sigma, and was diluted in mineral oil at a ratio of 1:100. In the experiment, the isoamyl acetate was further diluted 5-40 times by mixing with air. The air mixed with odor molecules was provided at a position about 1 cm away from the tentacles of the Drosophila through a cavity about 1 cm wide on the experimental table. The odor molecule of different concentrations was tested by controlling the airflow. Each imaging cycle was 17.8 seconds, of which 5 to 10 seconds was the time for providing specific odor molecules. After the imaging experiment for odor function, the imaging area was scanned layer by layer with high resolution setting to obtain the distribution information of the olfactory bulb, which was later identified based on the information of olfactory bulb distribution at the antennal lobe reported in the literature.
# The transgenic Drosophila UAS-GRAB-GDA3.0 was constructed to express the GRAB-GDA3.0 sensor in specific cells, driven by the corresponding GAL4 strain. First, GRAB-GDA3.0 was expressed in dopaminergic neurons (DAN) in all Drosophila, and the response induced by odor (isoamyl acetate) was examined by in vivo two-photon imaging (FIG. 39A).
# A pharmacological study was performed on GRAB-GDA3.0.
# The rate of GDA signal attenuation between normal Drosophila and Drosophila with reduced DAT expression was compared (this is the experiment of gene level research using DAT-RNAi described later). In DAN, the dopamine transporter (DAT) is located in the presynaptic membrane and […] DA intermittently and cyclically from the synapse. DAT-RNAi was used to inhibit DAT expression in DAN (FIG. 40G).
molecule,measurement,setting,value
CCCN(CCC)CC1CCCCN1CCNC(=O)N1c2ccccc2C(=O)Nc2cccnc21 (centres unmarked) [AF-DX384],effect of M3R antagonist on ACh-induced increase of fluorescence,[1]; GRAB-ACh 2.0 in HEK293T cell,completely blocked
CN1CCN(c2nc3cc(C(F)(F)F)ccc3n3cccc23)CC1.O=C(O)/C=C\C(=O)O.O=C(O)/C=C\C(=O)O [CGS12066B],agonist-induced change of GRAB-5-HT2.1 fluorescence signal,human HTR2C receptor,cannot cause the change; also recorded: cannot change the fluorescent signal
"NCCc1ccc(O)c(O)c1 [dopamine, Dopamine]",activation or block of GRAB-GDA3.0,human DRD2 receptor,activated
Clc1cccc(COc2cncc(N3CCNCC3)n2)c1 [CP809],agonist-induced change of GRAB-5-HT2.1 fluorescence signal,human HTR2C receptor,can cause the fluorescence signal change; also recorded: can induce changes in fluorescent signal
Cc1cc(NC(=O)Nc2ccc3c(ccn3C)c2)sn1 [SB204741],antagonism of serotonin-induced increase of GRAB-5-HT2.1 fluorescence signal,human HTR2C receptor,cannot antagonize; also recorded: failed to inhibit
COc1cc(OC)c(C(=O)CCCCN2CCC3(CC2)NC(=O)NC3=O)cc1NS(=O)(=O)c1ccc(C(F)(F)F)cc1 [RS102221],antagonism of serotonin-induced increase of GRAB-5-HT2.1 fluorescence signal,human HTR2C receptor,can antagonize; also recorded: can inhibit
"CC(C)NCC(O)c1ccc(O)c(O)c1 (centres unmarked) [ISO, Isoproterenol]",fluorescent signal change of GRAB-NE2.0 to ligand,"human ADRA2A receptor; GRAB-NE2.0, saturated concentration",no response
same,activation of GRAB-NE2.1 fluorescence signal by ligand,human ADRA2A receptor; cells expressing GRAB-NE2.1,cannot
Nc1nc2c(ncn2[C@@H]2O[C@H](COP(=O)(O)OP(=O)(O)OP(O)(O)=S)[C@@H](O)[C@H]2O)c(=O)[nH]1 [GTPγS],effect of Gαi inhibition on concentration-dependent curve of GRAB-NE2.0 to NE,human ADRA2A receptor; PTX co-transfection or GTPγS with digitonin,did not change the concentration-dependent curve
"GRAB-ACh 2.0: GRAB-ACh variant with GG-APSVA peptide linkers, SEQ ID NO: 16",time constant of fluorescence increase,"[2]; ACh perfusion, single scan",185 ms
same,time constant of fluorescence decrease,"[2]; Tio perfusion, single scan",696 ms
same,average on time constant,"[2]; local ACh perfusion, single exponential fit, n=18",279.4 ± 32.6 ms and 280 ± 32 ms
same,average off time constant,"[2]; local antagonist perfusion in 100 μM ACh, n=11",762.3 ± 74.9 ms and 762 ± 75 ms
same,ΔF/F0 peak response,"[1]; 100 μM ACh perfusion, HEK293T cells",~100% and 90.12±1.74% and 94.0±3.0% and 90%
same,EC50,"[1]; ACh 10 nM to 100 μM, Boltzmann fit, n=4",~0.7 µM
same,ΔF/F0 response,"[1]; ACh (100 μM), second round screening, HEK293T cells",~0.9
same,pEC50,[1]; dose-dependent response to ACh,6.12 ± 0.11
NC1=NCC2c3ccccc3Cc3ccccc3N12 (centres unmarked) [epinastine],effect on odor (IA)-stimulated GDA signal in MB β' lobe,[3],cannot be blocked; also recorded: failed to be blocked
"NC[C@H](O)c1ccc(O)c(O)c1 [NE, Norepinephrine]",activation of GRAB-NE2.1 fluorescence signal by ligand,human ADRA2A receptor,can activate
same,fluorescent signal change of GRAB-NE2.0 to ligand,human ADRA2A receptor,exhibits a fluorescent signal change
CC(N)Cc1c[nH]c2ccc(OCc3cccs3)cc12 (centres unmarked) [BWT23C83],agonist-induced change of GRAB-5-HT2.1 fluorescence signal,human HTR2C receptor,cannot cause the change; also recorded: cannot change the fluorescent signal
"CNC[C@H](O)c1ccc(O)c(O)c1 [Epi, Epinephrine]",activation of GRAB-NE2.1 fluorescence signal by ligand,human ADRA2A receptor,can activate
same,fluorescent signal change of GRAB-NE2.0 to ligand,human ADRA2A receptor,exhibits a fluorescent signal change
